Our source for the logP values is the OPERA property sets (Mansouri et al. 2018).

For orientation: logP means the decadic logarithm of the partition coefficient of the neutral form, usually between octanol and water. High values mean a more lipophilic compound, low ones a more hydrophilic compound.

The compound `CNC(=O)ON=C1SC(C)OC1C` (centres undefined) gave a logP of 0.96.
The compound `CNC(=O)ON=C1SCOC1C` (centres undefined) showed a logP of 0.46.
Compound `CNC(=O)ON=C1SCOC1(C)C` returned a logP of 0.82.
`CNC(=O)ON=C1SCSC1C` (centres undefined): the logP is 0.91.
The figure for `CCCC1OCSC1=NOC(=O)NC` (centres undefined) is 1.52; for `CNC(=O)ON=C1SCCSC1(C)C` it is 1.51.
The figure for `CNC(=O)ON=C1SCSC1(C)C` is 1.31; for `CNC(=O)ON=C1CSC(C)(C)S1` it is 1.33; for `CNC(=O)ON=C1CSCCS1` it is 0.49.
`CNC(=O)ON=C1SCOC1C(C)C` (centres undefined) displayed a logP of 1.48.
The figure for `CNC(=O)ON=C1CSCS1` is 0.51.
In turn, `CNC(=O)ON=C1COCS1` yielded a logP of 0.06.
On to `CNC(=O)ON=C1COCCS1`, for which the logP was found to be 0.
`CNC(=O)ON=C1SCOC1CCOC` (centres undefined) displayed a logP of 0.51.
